According to PMC5290737, “Surface mediated cooperative interactions of drugs enhance mechanical forces for antibiotic action” (Scientific Reports, 2017):
Values after ≈ are worked out from the molar mass of the structure shown. Read-outs that look alike come from different tables or passages of the source.

What was measured:
VRR in solution = details: ref. 1 (Van), ref. 6 (Rist), ref. 8 (CE), ref. 2 (Ori), supplementary references, read-out: Ksurf Solution; cited from earlier work
[1] = tested on: membrane bound VRR (competitor Ac-VSR); experiment: Competitive inhibition of drug-VRR cantilever response by Ac-VSR in solution; type: binding; details: for IC50: Van 50 μM or Ori 0.1 μM against VRR cantilever, fit of equation (1), read-out: IC50 (concentration of antagonist Ac-VSR giving 50% inhibition of drug-receptor interactions at the surface); for Ac-VSR concentration required to inhibit the mechanical response: Van 50 μM, Ori 0.1 μM against VRR
Description: In the first set of experiments, we assessed whether the 2-D boundary layer could mediate more efficient complex aggregation of antibiotics and thus lead to enhanced signal transduction compared to a 3-D solution. To achieve this, diacetyl vancomycin susceptible receptor (or Ac-VSR)[14] was added to the solution containing Van or Ori in order to act as a competitor against membrane bound VRR. […] The concentrations of Van and Ori in solution were kept constant at 50 μM and 0.1 μM respectively. These particular concentrations were chosen because (1) they give rise to relatively large mechanical bending signals, (2) they fall within the linear portions of the Langmuir adsorption isotherms, and (3) they require relatively low levels of Ac-VSR to inhibit the mechanical response at the surface. We therefore reasoned that if the interaction between a drug and Ac-VSR is independent of any surface effects then the amount of Ac-VSR which inhibits the mechanical response at a surface is expected to be the same for both Van and Ori. The concentration of antagonist (Ac-VSR) that gives rise to 50% inhibition (IC50) of drug-receptor interactions at the surface was used as measure of membrane effects on the association kinetics and mechanical response. […] To calculate the IC50, we analyzed the data using equation (1), whose detailed derivation has been reported previously.
Here σeq is the equilibrium mechanical stress, σligand1 is the mechanical stress generated by ligand1 in the absence of a competing ligand2, σligand2 is the corresponding minimum stress generated by ligand1 in the presence of a large excess of the concentration of competing ligand2. […] The IC50 for Ori is 3-fold larger than that of Van.

[2] = ligand-ligand dissociation constant in solution; ref. 2 (Van, CE, Ori), ref. 5 (Rist), supplementary references; read-out: K1 Solution (complex aggregation constant); cited from earlier work
[3] = tested on: methicillin-resistant Staphylococcus aureus (MRSA); details: absence of polysorbate-80; supplementary references; cited from earlier work
[4] = tested on: vancomycin-resistant receptor (VRR); experiment: Cantilever surface stress assay, antibiotic binding to surface-bound VRR; details: for mechanical response (in words): 3 μM drug against VRR; for compressive surface stress: 10 μM antibiotic against VRR; for Kd: fit of equation (2); for maximum stress data, Mean: 4 chips, one-way ANOVA table S4
From the text: To probe different pathways of signal-transduction central to the efficacy of recognition mechanisms and therapeutic agents, we used cantilever force-based technology. Because of its nanometre strain sensitivity, this technology can directly measure the smallest changes in mechanical strain caused by specific antibiotic binding. The principles of force transduction and measurements are well established[18][19][20] and many studies focused on cantilever sensors have been published. Unlike conventional methods such as 1H–NMR spectroscopy, enzyme-linked immunosorbent assays (ELISA)[29] or surface plasmon resonance (SPR)[30] which measure optical signatures of chemical binding, cantilever technology has the capacity to resolve forces at the level of individual hydrogen bonds, making it uniquely suited to provide important insight into force transduction mechanisms, such as cell wall strain in response to antibiotic binding. Moreover, in contrast to direct current or low-frequency signals, which cannot probe beyond electrical double layers formed by screening salts, mechanical signaling is sensitive to ligands even when they are located at distance of ~1 nm or more from the sensor surface (Fig. 1d). Measurements were performed using cantilevers functionalized with self-assembled monolayers (SAM) of VSR, VRR or reference polyethylene glycol (PEG) (see methods & materials, Supplementary Information). The specificity of mechanical signaling was achieved by performing measurements in differential mode, where the bending response of the reference PEG-coated cantilevers, (known to reduce nonspecific drug adsorption[8][14][34]) was subtracted from VSR- and VRR-coated cantilever signals (see cantilever measurement procedure, method section).
Thus far, we have discussed the impact of near-membrane layer on the association kinetics, mechanical force transduction, specificity of molecular recognition and microbial susceptibility. To gain mechanistic insight (Fig. 7a,b), we averaged measurements for each drug-target interaction over four separate chips and the results are summarized in Fig. 7c,d. […] The mechanical signaling response follows an s-shaped curve undergoing its steepest rise at N ~1/Ksurf before reaching a plateau when the binding sites are fully occupied (Fig. 7c,d). To calculate Ksurf, we used equation (2)[14], based on the conventional Hill adsorption model.
Here, Ksurf is raised to the power n to ensure that it maintains the dimension of concentration as n varies. Setting n = 1 yields the Langmuir isotherm where the reactions occur independently, while n > 1 corresponds to positive co-operative polyvalent interactions and n < 1 is a measure of negative co-operativity. In Fig. 7c,d, we find that the mechanical response at VSR levels off at 50 μM concentration for all antibiotics. In contrast, for the drug-resistant VRR a concentration of more than 1000 μM of Van, Rist or CE was required to reach indistinguishable maximum signals. The outcome of the fit using three parameters (n, Ksurf and σmax) is summarized in Supplementary Fig. 2. The calculated Ksurf for Ori binding to VSR is 40 ± 10 nM, which is 25 times stronger than for Van where Ksurf is 1.0 ± 0.3 μM. The Ksurf of Ori against VRR is 70 ± 10 nM, an astonishing 11,000 times stronger than for Van where Ksurf is 800 ± 300 μM. As a further measurement control and to confirm the accuracy of surface binding affinity, we used a commercially available SPR method (Fig. 7e,f and Supplementary SPR sensor chip functionalization procedure), where the detection of ligands is at a single planar metal surface.
The modified cantilever chip was mounted in a sealed liquid cell. The alignment of each light source onto the free end of each cantilever was confirmed by heating liquid chamber to 1 °C rise. […]

[5] = tested on: vancomycin resistant E. faecalis (VRE); details: absence of polysorbate-80; ref. 2 (Van), ref. 5 (Rist, CE), ref. 9 (Ori), supplementary references; cited from earlier work
[6] = VRR on cantilever, pH 7.4 sodium phosphate buffer, read-out: Ksurf Cantilever (surface equilibrium dissociation constant)

SMILES | Kd (VRR in solution) | IC50 [1] | Ac-VSR concentration required to inhibit the mechanical response [1] | Kd [2] | MIC MRSA [3] | mechanical response (in words) [4] | compressive surface stress [4] | concentration required to reach indistinguishable maximum signals ([4]; VRR) | Kd [4, 6] | maximum stress data, Mean ([4]; VRR) | MIC VRE [5] | IC50 for Ori relative to Van ([1]; Ac-VSR competition against VRR) | Kd ([4]; VRR (drug-resistant target) on cantilever, read-out: Ksurf (cantilever)) | Ksurf of Ori against VRR, times stronger than for Van ([4]; ratio of cantilever Ksurf, VRR) | deleterious force sensitivity s = σeq/n ([4]; σeq = 23 mNm^−1, n ~10^11 receptor molecules per cantilever)
CN[C@H](CC(C)C)C(=O)N[C@H]1C(=O)N[C@@H](CC(N)=O)C(=O)N[C@H]2C(=O)N[C@H]3C(=O)N[C@H](C(=O)N[C@H](C(=O)O)c4cc(O)cc(O)c4-c4cc3ccc4O)[C@H](O)c3ccc(c(Cl)c3)Oc3cc2cc(c3O[C@@H]2O[C@H](CO)[C@@H](O)[C@H](O)[C@H]2O[C@H]2C[C@](C)(N)[C@H](O)[C@H](C)O2)Oc2ccc(cc2Cl)[C@H]1O [Van, vancomycin] | 2.4 mM | 15.4 ± 0.2 µM | 500 µM | 20 mM | 0.5 to 4 mg/L | no effect | ~ 0.4 mNm^−1 | more than 1000 μM | 800000 nM | 7.4 | 512 mg/L (≈ 353 µM) | – | – | – | –
CN[C@H](CC(C)C)C(=O)N[C@H]1C(=O)N[C@@H](CC(N)=O)C(=O)N[C@H]2C(=O)N[C@H]3C(=O)N[C@H](C(=O)N[C@H](C(=O)O)c4cc(O)cc(O)c4-c4cc3ccc4O)[C@H](O[C@H]3C[C@](C)(N)[C@@H](O)[C@H](C)O3)c3ccc(c(Cl)c3)Oc3cc2cc(c3O[C@@H]2O[C@H](CO)[C@@H](O)[C@H](O)[C@H]2O[C@H]2C[C@](C)(NCc3ccc(-c4ccc(Cl)cc4)cc3)[C@@H](O)[C@H](C)O2)Oc2ccc(cc2Cl)[C@H]1O [Ori, oritavancin] | 4.2 mM | 50.7 ± 2.1 µM | more than 500 μM | 0.0016 mM | 0.13 to 1.01 mg/L | significantly large mechanical response | ~ 23 mNm^−1 | – | 70 ± 10 nM | 20.6 | 0.25 to 2 mg/L | 3 fold | 70 nM | 11,000 times | ~ 20 fNm^−1
